Reference: patent publication US6946480B2, “Glutaminyl based DPIV inhibitors” (priority 2002, dated 2005)

Assays:
[1] = Plasma stability (half-life of inhibitory potency in human plasma); type: in vitro ADME
Experimental: In order to investigate the stability of glutaminyl pyrrolidine or glutaminyl thiazolidine in human plasma, the activity of DPIV in plasma was determined at a defined time. The average DPIV activity in human plasma was determined as 43.69 U/ml. In the working solution, the plasma was diluted in 0.9% NaCl to fix the DPIV activity level at 25 U/ml.
Plasma and glutaminyl pyrrolidine or glutaminyl thiazolidine in different concentrations (5*10^−5, 2.5*10^−5, 1.25*10^−5M in plasma) were incubated at 37° C. At defined time points samples were taken using a pipette roboter (Gilson 215, Liquid handler, Gilson) and transferred in a microtiter plate containing 5*10^−5M glycylprolylaminomethylcoumarine in 0.9% NaCl+015% Brij per well. After 6 min the reaction was stopped by addition of isoleucylthiazolidine (5*10^−5M in 0.9% NaCl solution).
Fluorescence measurement was performed against 0.9% NaCl in plasma (reference standard) using a plate reader (HTS7000plus, Applied Biosystems, Weiterstadt, Germany). The half-life of the inhibitory potency of glutaminyl pyrrolidine or glutaminyl thiazolidine was calculated by plotting the enzyme activity versus reaction time.

[2] = biological target: T1, recombinant human prolyl oligopeptidase (POP) (Homo sapiens, UniProt P48147); test: Cross reacting enzymes - prolyl oligopeptidase; type: biochemical; conditions: concentration range 1*10^−4 M-5*10^−8 M
T1 construct: made in house; host or cells: E. coli
T1 sequence (P48147 1-710): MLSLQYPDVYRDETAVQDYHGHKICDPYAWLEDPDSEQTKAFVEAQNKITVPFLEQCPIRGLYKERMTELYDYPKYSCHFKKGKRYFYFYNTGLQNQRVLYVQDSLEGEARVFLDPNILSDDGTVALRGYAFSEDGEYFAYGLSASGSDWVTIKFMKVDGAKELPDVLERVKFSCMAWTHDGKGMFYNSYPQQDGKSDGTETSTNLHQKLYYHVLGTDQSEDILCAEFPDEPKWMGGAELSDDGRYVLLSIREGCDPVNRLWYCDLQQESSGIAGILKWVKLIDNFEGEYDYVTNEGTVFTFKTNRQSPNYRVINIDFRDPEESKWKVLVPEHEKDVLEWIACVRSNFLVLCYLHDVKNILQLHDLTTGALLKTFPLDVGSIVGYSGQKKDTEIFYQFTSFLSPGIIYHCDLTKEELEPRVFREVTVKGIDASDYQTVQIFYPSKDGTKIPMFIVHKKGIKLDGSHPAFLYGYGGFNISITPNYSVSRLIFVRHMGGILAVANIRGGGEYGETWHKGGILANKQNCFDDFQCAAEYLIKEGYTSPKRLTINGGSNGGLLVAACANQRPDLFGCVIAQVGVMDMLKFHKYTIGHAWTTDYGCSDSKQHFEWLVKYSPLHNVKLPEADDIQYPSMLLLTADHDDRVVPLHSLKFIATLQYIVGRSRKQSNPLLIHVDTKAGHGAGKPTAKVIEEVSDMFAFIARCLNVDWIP
Experimental: (§1) Glutaminyl pyrrolidine or glutaminyl thiazolidine were tested for their cross reacting potency against dipeptidyl peptidase I, prolyl oligopeptidase and prolidase.
Substrates are peptides with a molecular weight up to 3000 Da.
The enzyme used was a recombinant human prolyl oligopeptidase. Recombinant expression was performed in E. coli under standard conditions as described elsewhere in the state of the art.
100 μl glutaminyl pyrrolidine or glutaminyl thiazolidine in an concentration range of 1*10^−4 M-5*10^−8 M were admixed with 100 μl μl buffer solution (40 mM HEPES, pH7.6, 0.015% Brij, 1 mM DTT) and 20 μl POP solution. The assay mixture was pre-incubated at 30° C. for 15 min After pre-incubation, 50 μl glycylprolylprolyl-4-nitroaniline solution (0.29 mM) were added and measurement of yellow color development due to 4-nitroaniline release was performed at 30° C. and λ=405 nm for 10 min using a plate reader (sunrise, Tecan, Crailsheim, Germany).
(§2) The IC50-values were calculated using Graphit 4.0.15 (Erithacus Software, Ltd., UK).

[3] = biological target: T2, Dipeptidyl Peptidase I (DP I, Cathepsin C) (Rattus norvegicus, UniProt P80067); test: Cross reacting enzymes - dipeptidyl peptidase I; type: biochemical; conditions: concentration range 1*10^−5 M-1*10^−7 M
T2 construct: purchased Qiagen GmbH, Hilden, Germany
T2 sequence (P80067 25-134 limits assumed): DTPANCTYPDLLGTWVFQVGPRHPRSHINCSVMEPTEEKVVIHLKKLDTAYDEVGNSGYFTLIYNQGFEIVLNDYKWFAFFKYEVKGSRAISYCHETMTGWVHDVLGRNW
T2 sequence (P80067 230-393 limits assumed): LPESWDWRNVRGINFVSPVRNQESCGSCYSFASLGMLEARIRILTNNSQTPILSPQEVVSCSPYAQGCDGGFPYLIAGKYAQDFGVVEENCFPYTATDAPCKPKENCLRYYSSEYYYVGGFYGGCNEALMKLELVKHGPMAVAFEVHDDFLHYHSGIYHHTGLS
T2 sequence (P80067 394-462 limits assumed): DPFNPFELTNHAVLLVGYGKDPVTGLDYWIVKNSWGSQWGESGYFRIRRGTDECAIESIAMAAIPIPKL
Experimental: as §1
DP I or cathepsin C is a lysosomal cysteine protease which cleaves off dipeptides from the N-terminus of their substrates (Gutman, H. R. & Fruton, J. S., 1948, J. Biol: Chem., 174, 851-858) . It is classified as a cysteine protease.
The enzyme used was purchased from Qiagen (Qiagen GmbH, Hilden, Germany). In order to get a fully active enzyme, the enzyme was diluted 1000fold in MES buffer pH5,6 (40 mM MES, 4 mM DTT, 4 mM KCl, 2 mM EDTA, 0.015% Brij) and pre-incubated for 30 min at 30° C.
50 μl glutaminyl pyrrolidine or glutaminyl thiazolidine in a concentration range of 1*10^−5 M-1*10^−7 M were admixed with 110 μl buffer-enzyme-mixture. The assay mixture was pre-incubated at 30° C. for 15 min After pre-incubation, 100 μl histidylseryl-β-nitroaniline (2*10^−5 M) were added and measurement of yellow color development due to β-nitroaniline release was performed at 30° C. and […] for 10 min, using a plate reader (HTS7000 plus, Applied Biosystems, Weiterstadt, Germany).
as §2

SMILES: NC(=O)CC[C@H](N)C(=O)N1CCCC1 [glutaminyl pyrrolidine]
- half-life of the inhibitory potency in human plasma ([1]; 37° C., 5*10^−5, 2.5*10^−5, 1.25*10^−5M): no half-time could be determined
- stability in human plasma ([1]; over 22 hours): stable in human plasma over 22 hours
- inhibition of POP activity [2]: no inhibition
- inhibition of DP I enzyme activity [3]: no inhibition
